Laboratory results taken from patent US6737383B1, “Herbicidal oxadiazolidines” (priority 1999, dated 2004).

How the values were obtained:
[1] = test system: blackgrass; experiment: Test B pre/postemergence blackgrass; assay type: in vivo, Alopecurus myosuroides
Summary of the method: (§1)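 Test chemicals in a non-phytotoxic solvent mixture with surfactant were sprayed preemergence onto planted seeds and postemergence onto plants 2 to 18 cm tall (1- to 4-leaf stage). After twelve to sixteen days in a greenhouse, injury was visually rated against untreated controls from 0 (no effect) to 10 (complete control).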

[2] = test system: surinam grass; experiment: Test B pre/postemergence surinam grass; assay type: in vivo, Brachiaria decumbens
Summary of the method: as §1

[3] = test system: cocklebur; experiment: Test B pre/postemergence cocklebur; assay type: in vivo, Xanthium strumarium
Summary of the method: as §1

[4] = test system: corn; experiment: Test B pre/postemergence corn; assay type: in vivo, Zea mays
Summary of the method: as §1

[5] = test system: crabgrass; experiment: Test B pre/postemergence crabgrass; assay type: in vivo, Digitaria sanguinalis
Summary of the method: as §1

[6] = test system: giant foxtail; experiment: Test B pre/postemergence giant foxtail; assay type: in vivo, Setaria faberii
Summary of the method: as §1

[7] = test system: morningglory; experiment: Test B pre/postemergence morningglory; assay type: in vivo, Ipomoea hederacea
Summary of the method: as §1

[8] = test system: pigweed; experiment: Test B pre/postemergence pigweed; assay type: in vivo, Amaranthus retroflexus
Summary of the method: as §1

[9] = test system: rape; experiment: Test B pre/postemergence rape; assay type: in vivo, Brassica napus
Summary of the method: as §1

[10] = test system: sugar beet; experiment: Test B pre/postemergence sugar beet; assay type: in vivo, Beta vulgaris
Summary of the method: as §1

[11] = test system: velvetleaf; experiment: Test B pre/postemergence velvetleaf; assay type: in vivo, Abutilon theophrasti
Summary of the method: as §1

[12] = test system: wild oat; experiment: Test B pre/postemergence wild oat; assay type: in vivo, Avena fatua
Summary of the method: as §1

[13] = test system: rice; experiment: Test B flood test rice; assay type: in vivo, Oryza sativa
Summary of the method: (§2)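 Read-out is a visual response score from 0 (no effect) to 10 (complete control), assigned by comparison with untreated controls. Treatment was applied at the 2-leaf stage, and plants stayed in the greenhouse for twelve to sixteen days before scoring.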

[14] = test system: smallflower flatsedge; experiment: Test B flood test smallflower flatsedge; assay type: in vivo, Cyperus difformis
Summary of the method: as §2

[15] = test system: bamyardgrass; experiment: Test B flood test barnyardgrass; assay type: in vivo, Echinochloa crus-galli
Summary of the method: as §2

[16] = Postemergence, Rate 62 g/ha, scale 0 to 10, 0 is no effect, 10 is complete control
[17] = Postemergence, Rate 125 g/ha, scale of 0 to 10 where 0 is no effect and 10 is complete control
[18] = Postemergence, Rate 500 g/ha, scale of 0 to 10 where 0 is no effect and 10 is complete control
[19] = Preemergence, Rate 62 g/ha, scale of 0 to 10 where 0 is no effect and 10 is complete control
[20] = Preemergence, Rate 125 g/ha, scale of 0 to 10 where 0 is no effect and 10 is complete control
[21] = Preemergence, Rate 250 g/ha, scale 0 to 10 (0 no effect, 10 complete control)
[22] = Preemergence, Rate 500 g/ha, scale of 0 to 10 where 0 is no effect and 10 is complete control
[23] = Postemergence, Rate 250 g/ha, scale of 0 to 10, 0 is no effect, 10 is complete control
[24] = Rate 62 g/ha, flood test species, Pre-emergence, visual evaluation after twelve to sixteen days
[25] = Rate 125 g/ha, under heading Pre-emergence, flood test species, visual evaluation after twelve to sixteen days
[26] = Rate 250 g/ha, Pre-emergence (flood test species), scale 0 to 10, 0 is no effect, 10 is complete control
[27] = Rate 500 g/ha, Pre-emergence section of Table B, 0 to 10 scale (0 no effect, 10 complete control)

CC(C)N(C(=O)n1oc(=O)n(CC(=O)C2CCC2)c1=O)c1ccc(F)cc1 [Compound 640]
0: Plant response rating, Blackgrass [1, 16] | Blackgrass plant response rating [1, 19] | Blackgrass plant response rating [1, 20] | Plant response rating, Blackgrass [1, 21] | Plant response rating, B. signalgrass [2, 16] | Plant response rating, B. signalgrass [2, 17] | B. signalgrass plant response rating [2, 23] | B. signalgrass plant response rating [2, 19] | Plant response rating, Cocklebur [3, 16] | Plant response rating, Cocklebur [3, 17] | Cocklebur plant response rating [3, 19] | Cocklebur plant response rating [3, 20] | Plant response rating, Cocklebur [3, 21] | Plant response rating, Cocklebur [3, 22] | Plant response rating, Corn [4, 16] | Plant response rating, Corn [4, 17] | Corn plant response rating [4, 23] | Plant response rating, Corn [4, 18] | Corn plant response rating [4, 19] | Corn plant response rating [4, 20] | Plant response rating, Corn [4, 21] | Plant response rating, Corn [4, 22] | Plant response rating, Crabgrass [5, 16] | Plant response rating, Giant foxtail [6, 16] | Plant response rating, Giant foxtail [6, 17] | Giant foxtail plant response rating [6, 23] | Plant response rating, Morningglory [7, 16] | Morningglory plant response rating [7, 19] | Morningglory plant response rating [7, 20] | Plant response rating, Morningglory [7, 21] | Plant response rating, Morningglory [7, 22] | Plant response rating, Redroot pigweed [8, 16] | Plant response rating, Redroot pigweed [8, 17] | Redroot pigweed plant response rating [8, 19] | Redroot pigweed plant response rating [8, 20] | Plant response rating, Rape [9, 16] | Plant response rating, Rape [9, 17] | Rape plant response rating [9, 23] | Plant response rating, Rape [9, 18] | Rape plant response rating [9, 19] | Rape plant response rating [9, 20] | Plant response rating, Sugarbeets [10, 16] | Plant response rating, Sugarbeets [10, 17] | Sugarbeets plant response rating [10, 23] | Sugarbeets plant response rating [10, 19] | Plant response rating, Velvetleaf [11, 16] | Velvetleaf plant response rating [11, 19] | Velvetleaf plant response rating [11, 20] | Plant response rating, Velvetleaf [11, 21] | Plant response rating, Velvetleaf [11, 22] | Plant response rating, Wild oats [12, 16] | Plant response rating, Wild oats [12, 17] | Wild oats plant response rating [12, 23] | Wild oats plant response rating [12, 19] | Wild oats plant response rating [12, 20] | Plant response rating, Rice (0 to 10 scale, 0 is no effect, 10 is complete control) [13, 24] | Rice plant response rating (0 to 10 scale, 0 is no effect, 10 is complete control) [13, 25] | Rice plant response rating [13, 26] | Rice plant response rating [13, 27] | Plant response rating, S. Flatsedge (0 to 10 scale, 0 is no effect, 10 is complete control) [14, 24] | S. Flatsedge plant response rating (0 to 10 scale, 0 is no effect, 10 is complete control) [14, 25] | S. Flatsedge plant response rating [14, 26] | S. Flatsedge plant response rating [14, 27] | Plant response rating, Barnyardgrass (0 to 10 scale, 0 is no effect, 10 is complete control) [15, 24] | Barnyardgrass plant response rating (0 to 10 scale, 0 is no effect, 10 is complete control) [15, 25] | Barnyardgrass plant response rating [15, 26] | Barnyardgrass plant response rating [15, 27]
3: Crabgrass plant response rating [5, 23] | Crabgrass plant response rating [5, 19] | Crabgrass plant response rating [5, 20] | Plant response rating, Morningglory [7, 17] | Plant response rating, Rape [9, 21] | Plant response rating, Velvetleaf [11, 17] | Velvetleaf plant response rating [11, 23] | Plant response rating, Wild oats [12, 21]
9: Plant response rating, B. signalgrass [2, 22] | Plant response rating, Crabgrass [5, 21] | Giant foxtail plant response rating [6, 19] | Giant foxtail plant response rating [6, 20] | Plant response rating, Giant foxtail [6, 22]
6: Plant response rating, Crabgrass [5, 18] | Morningglory plant response rating [7, 23] | Plant response rating, Morningglory [7, 18] | Plant response rating, Rape [9, 22] | Plant response rating, Sugarbeets [10, 21] | Plant response rating, Sugarbeets [10, 22] | Plant response rating, Wild oats [12, 22]
2: B. signalgrass plant response rating [2, 20] | Cocklebur plant response rating [3, 23] | Plant response rating, Crabgrass [5, 17] | Plant response rating, Redroot pigweed [8, 21] | Sugarbeets plant response rating [10, 20]
4: Plant response rating, Blackgrass [1, 17] | Plant response rating, B. signalgrass [2, 18] | Plant response rating, B. signalgrass [2, 21] | Plant response rating, Giant foxtail [6, 18] | Redroot pigweed plant response rating [8, 23]
5: Plant response rating, Blackgrass [1, 18] | Plant response rating, Cocklebur [3, 18]
10: Plant response rating, Crabgrass [5, 22] | Plant response rating, Giant foxtail [6, 21]
8: Plant response rating, Blackgrass [1, 22]
7: Plant response rating, Redroot pigweed [8, 22]
